How the values were obtained:
[1] = test system: human colon cancer cell line KM20C; assay: Antitumor effect on subcutaneously implanted KM20C tumor in nude mice, 9-day oral dosing (Example 1); type: in vivo, male nude mice BALB/c-nu/nu; settings: folinic acid 20.0 mg/kg/day (given as calcium folinate), alone or with tegafur+gimeracil+oteracil potassium 8.3+2.4+8.1 mg/kg/day or tegafur+uracil 20.0+44.8 mg/kg/day, oral once a day for 9 days, 10 days after grouping
Protocol: The ratio of the tumor volume 10 days after grouping to the tumor volume upon grouping was calculated to obtain a relative tumor volume. The tumor growth inhibition ratio (%) was determined using the relative tumor volumes of the drug-administered groups and the control group.

[2] = Antitumor effect on subcutaneously implanted Colon 38 tumor in mice, 9-day oral dosing (Example 2); type: in vivo, male mice C57BL/6; settings: folinic acid 40.0 mg/kg/day (given as calcium folinate), alone or with tegafur+gimeracil+oteracil potassium 8.7+2.5+8.5 mg/kg/day or tegafur+uracil 15.1+33.8 mg/kg/day, oral once a day for 9 days; 12 days after grouping
Protocol: (§1) The ratio of the tumor volume 12 days after grouping to the tumor volume upon grouping was calculated to obtain a relative tumor volume. The tumor growth inhibition ratio (%) was determined using the relative tumor volumes of the drug-administered groups and the control group.

[3] = test system: human colon cancer cell line Colon 38; assay: as above; type: in vivo, male mice C57BL/6; settings: folinic acid 40.0 mg/kg/day (given as calcium folinate), alone or with tegafur+gimeracil+oteracil potassium 8.7+2.5+8.5 mg/kg/day or tegafur+uracil 15.1+33.8 mg/kg/day, oral once a day for 9 days; 12 days after grouping, vs control group
Protocol: as §1

[4] = test system: human colon cancer cell line KM20C; assay: Effect of folinate dosage on the antitumor effect on implanted KM20C tumor in nude mice, 14-day oral dosing (Example 3); type: in vivo, male nude mice (BALB/cA-nu); settings: for enhancement of the antitumor effect of the tegafur/gimeracil/oteracil potassium combined drug: KM20C
Protocol: The ratio of the tumor volume 15 days after grouping to the tumor volume upon grouping was calculated to obtain a relative tumor volume. The tumor growth inhibition ratio (%) was determined using the relative tumor volumes of the drug-administered groups and the control group.

[5] = Body weight change as parameter of whole-body toxicity (Example 1); settings: folinic acid 20.0 mg/kg/day (given as calcium folinate), alone or with tegafur+gimeracil+oteracil potassium 8.3+2.4+8.1 mg/kg/day or tegafur+uracil 20.0+44.8 mg/kg/day, oral once a day for 9 days; 10 days after beginning of administration
Description: A cubic fragment measuring about 2 mm in diameter of the human colon cancer cell line KM20C was subcutaneously implanted on the backs of male nude mice BALB/c-nu/nu. When the average tumor volume (=major axis (mm)×minor axis (mm)^2) reached about 200 mm^3, the mice were divided into groups.
The following preparations each dissolved or suspended in a 0.5% hydroxypropylmethyl cellulose (HPMC) solution were orally administered to the mice once a day in amounts as shown in Table 1 for 9 consecutive days from the day after grouping: calcium folinate; a tegafur/gimeracil/oteracil potassium combined drug (molar ratio of tegafur:gimeracil:oteracil potassium=1:0.4:1); a combined drug containing the tegafur/gimeracil/oteracil potassium combined drug described above and calcium folinate; a tegafur/uracil combined drug (molar ratio of tegafur:uracil=1:4); and a combined drug containing the tegafur/uracil combined drug described above and calcium folinate.
(§2) The body weight change was calculated by subtracting the body weight of mice 10 days after the beginning of administration from the body weight of mice upon grouping and used as a parameter of whole-body toxicity of the pharmaceutical preparation.

[6] = Body weight change as parameter of whole-body toxicity (Example 2); settings: folinic acid 40.0 mg/kg/day (given as calcium folinate), alone or with tegafur+gimeracil+oteracil potassium 8.7+2.5+8.5 mg/kg/day or tegafur+uracil 15.1+33.8 mg/kg/day, oral once a day for 9 days; 10 days after beginning of administration
Description: A cubic fragment measuring about 2 mm in diameter of the human colon cancer cell line Colon 38 was subcutaneously implanted on the backs of male mice C57BL/6. When the average tumor volume (=major axis (mm)×minor axis (mm)^2) reached about 150 mm^3, the mice were divided into groups.
The following preparations each dissolved or suspended in a 0.5% hydroxypropylmethyl cellulose (HPMC) solution were orally administered to the mice once a day in amounts as shown in Table 2 for 9 consecutive days from the day after grouping: calcium folinate; a tegafur/gimeracil/oteracil potassium combined drug (molar ratio of tegafur:gimeracil:oteracil potassium=1:0.4:1); a combined drug containing the tegafur/gimeracil/oteracil potassium combined drug described above and calcium folinate; a tegafur/uracil combined drug (molar ratio of tegafur:uracil=1:4); and a combined drug containing the tegafur/uracil combined drug described above and calcium folinate.
as §2

[7] = Body weight change as parameter of whole-body toxicity (Example 3); settings: folinic acid 20.0 mg/kg/day (as calcium folinate), alone or with tegafur+gimeracil+oteracil potassium 5.7+1.7+5.6 mg/kg/day, oral once a day for 14 days; 15 days after beginning of administration
Description: A cubic fragment measuring about 2 mm in diameter of the human colon cancer cell line KM20C was subcutaneously implanted on the backs of male nude mice (BALB/cA-nu). When the average tumor volume (=major axis (mm)×minor axis (mm)^2) reached about 200 mm^3, the mice were divided into groups.
A combined drug containing a tegafur/gimeracil/oteracil potassium combined drug (molar ratio of tegafur:gimeracil oteracil potassium=1:0.4:1) and calcium folinate, dissolved or suspended in a 0.5% hydroxypropylmethyl cellulose (HPMC) solution was orally administered to the mice once a day in amounts as shown in Table 3 for 14 consecutive days from the day after grouping.
The body weight change was calculated by subtracting the body weight of mice 15 days after the beginning of administration from the body weight of mice upon grouping used as a parameter of whole-body toxicity of the pharmaceutical preparation. Although calcium folinate was used in the experiment, the dosage given in the table is that calculated as the amount of folinic acid.

[8] = test system: 5-FU degradation; settings: compared with uracil; cited from earlier work

| SMILES | Relative tumor volume (Mean ± SD) [1] | Tumor growth inhibition ratio (%) ([1]; vs control group) | Relative tumor volume (Mean ± SD) [2] | Tumor growth inhibition ratio (%) [3] [%] | enhancement of the antitumor effect of the tegafur/gimeracil/oteracil potassium combined drug ([4]; calcium folinate at the dose of 2.5 mg/kg/day) | enhancement of the antitumor effect of the tegafur/gimeracil/oteracil potassium combined drug ([4]; calcium folinate at the dose of 5 mg/kg/day) | Relative tumor volume (Mean ± SD) ([4]; folinic acid 20.0 mg/kg/day (as calcium folinate), alone or with tegafur+gimeracil+oteracil potassium 5.7+1.7+5.6 mg/kg/day, oral once a day for 14 days, 15 days after grouping) | Tumor growth inhibition ratio (%) ([4]; folinic acid 20.0 mg/kg/day (as calcium folinate), alone or with tegafur+gimeracil+oteracil potassium 5.7+1.7+5.6 mg/kg/day, oral once a day for 14 days, 15 days after grouping, vs control group) | Body weight change [5] [g] | Body weight change [6] [g] | Body weight change [7] [g] | 5-FU degradation inhibitory effect relative to that of uracil [8] |
| --- | --- | --- | --- | --- | --- | --- | --- | --- | --- | --- | --- | --- |
| Nc1nc(=O)c2c([nH]1)NCC(CNc1ccc(C(=O)N[C@@H](CCC(=O)O)C(=O)O)cc1)N2C=O (mixture of isomers) [folinic acid] | 2.24 | 6.1 | 8.78 | 7.5 | some enhancement | clear enhancement | 4.50 ± 1.25 ^ | 5.4 | -0.8 | 0.7 | -0.6 |  |
| Oc1cc(O)c(Cl)cn1 [gimeracil, 2,4-dihydroxy-5-chloropyridine] |  |  |  |  |  |  |  |  |  |  |  | about 200 times |
